Read-outs that look alike come from different tables or passages of the source. Non-standard residues stand in square brackets, D forms with d. Residues, ends and D or L forms follow the SMILES beside them. *: point of attachment. d(β3hF) = N[C@@H](CC(=O)O)Cc1ccccc1; β3hF = N[C@H](CC(=O)O)Cc1ccccc1; tBu = CC(C)(C)*

Data set [1] relates to PHA-induced proliferation of human peripheral blood mononuclear cells (PBMC). Nature of the data set: Proliferative response of PBMC to PHA (MTT). In kind it is cell-based. To be noted: four-day incubation.
Data set [2] relates to LPS-induced TNF-α production. In kind it is cell-based. As to conditions: Table 2A. On the procedure: Human whole blood was diluted 10-fold with RPMI-1640 medium and distributed to 24-well culture plates in 1 ml aliquots. LPS was added to the culture at a concentration of 1 μg/ml. The studied peptides were used at concentrations of 1, 10 and 100 μg/ml. After overnight incubation, the supernatants were harvested and frozen at −20° C. until cytokine determination. TNF-α activity was determined using a bioassay. Briefly, WEHI 164.13 cells (ATCC CRL 1751) were seeded at a concentration of 2×10^4 cells/well in quadriplicate. Increasing dilutions of the assayed supernatant were mixed with the target cells in the presence of actinomycin D (1 μg/ml). After 20 h of incubation, MTT was added into the wells, and the cultures were incubated for an additional 4 h. […] The detection limit of the assay was about 2.5 pg/ml. One unit of TNF-α activity was defined as an inverse of supernatant dilution where 50% cell death took place. The cultures labeled “Control (−)” contained no LPS. The cultures labeled “Control (LPS)” contained LPS and none of the studied compounds. Statistical analysis was not applied since the data derive from single cultures (wells).

In data set [3] the test system is human PBMC. In words: Toxicity test: PBMC survival in 24 h culture (MTT). To be noted: ANOVA.
Experimental: PBMC were isolated by centrifugation on Ficoll-uropoline gradient (density 1.077 g/ml) (Lymphoprep; PAA Laboratories), at 800×g for 20 min at 4° C. The interphase cells, consisting of lymphocytes (20%) and monocytes (80%) were then washed three times with Hanks' medium and re-suspended in the culture medium at density of 2×10^6 cells/ml.
Appropriate dilutions of DMSO in RPMI 1640 medium were used as controls. Cell survival was determined by the MTT colorimetric method (Hansen et al., J. Immunol. Methods, 1989, pp. 203-210). The data are presented as a mean OD value from quadriplicate wells ±standard error (SE). The cultures “Control (−)” contained only cells in the culture medium.
The assay was performed per Hansen et al., J. Immunol. […] Briefly, 25 μl of MTT (5 mg/ml) stock solution was added per well at the end of cell incubation and the plates were incubated for 3 h in a cell culture incubator. Then, 100 μl of the extraction buffer (20% SDS with 50% DMF, pH 4.7) was added. After additional overnight incubation, the optical density was measured at 550 nm (Dynatech 5000).
In data set [4] the test system is mice, carrageenan-induced foot pad edema. Nature of the data set: Carrageenan-induced foot-pad edema test. In kind it is in vivo, mouse. As to conditions: 4 h after carrageenan; peptides 250 μg i.p., DEX 25 μg i.p., 30 min before; FIGS. 17A-17C. On the procedure: In this and the air-pouch test, 1.5 mg peptide was dissolved in 300 μl of DMSO, then in 0.9% NaCl to achieve the desired dose (250 μg/0.2 ml or 100 μg/0.2 ml). Carrageenan (Sigma) was dissolved in 0.9% aqueous NaCl (overnight). 50 μl of 2% carrageenan solution was injected intradermally into hind foot pads. The peptides were given in a single 250 μg dose (0.2 ml) per mouse intraperitoneally (i.p.), 30 min before carrageenan administration. Dexamethasone (DEX) (Dexaven, Polfa, Poland), a reference drug, was given i.p. in dose 25 μg per mouse. Control mice were administered i.p. appropriately diluted solvent (DMSO in aqueous NaCl) instead of peptides. The foot pads of “background” (BG) mice were injected with 50 μl of 0.9% aqueous NaCl. Foot pad edema was measured with a spring caliper, 2 h, 3 h and 4 h after administration of carrageenan. The results are presented in FIGS. 17A, 17B and 17C as mean values of the antigen-specific increase of the foot pad thickness measured in 5 mice in each experimental group and expressed in mm ±SE (only results from measurements 4 h following administration of carrageenan are presented in figures). Statistics: FIG. 17A: Control vs: DEX P=0.0001; 4B8M P=0.0001; P25 NS (P=1.0000); P28 NS (P=1.0000); P31 NS (P=0.0528); P35 P=0.0008 (ANOVA of Kruskal-Wallis); FIG. 17B: Statistics: Control vs: P22 NS (P=1.0000); P26 NS (P=1.0000); P27 P=0.0050; P30 P=0.0004; P33-b NS (P=1.0000); SP00-b P=0.0001; P00S-b NS (P=1.0000) (ANOVA of Kruskal-Wallis); FIG. 17C: Statistics: Control vs: P21 P=0.0147; P23-2 P=0.0083; P24 P=0.0001; P29 NS (P=0.9999); P32 P=0.0001; P33 NS (P=0.6806); P34 NS (P=0.1920) (ANOVA).

Where [5] appears, read: compound 1 μg/ml, LPS 1 μg/ml, overnight.
The mark [6] stands for this setting: compound 100 μg/ml (DMSO only: 196).
Setting [7] is: 10 μg/ml, FIGS. 8A-8F (4B8M repeated per figure).
The mark [8] stands for this setting: 100 μg/ml, FIGS. 8A-8F (4B8M repeated per figure).

Turning to `O=C1C[C@@H](Cc2ccccc2)NC(=O)[C@@H]2CCCN2C(=O)[C@@H]2CCCN2C(=O)[C@H](Cc2ccccc2)N1` [I-G] (cyclo(FPP[d(β3hF)])), the “PHA-induced PBMC proliferation, P vs DMSO at appropriate dilution” value in data set [1] (1 μg/ml, FIGS. 9A-9B) stood at 0.9047; in data set [1] (10 μg/ml, FIGS. 9A-9F), 0.4297; in data set [1] (100 μg/ml, FIGS. 9A-9F), 0.9970. Moreover, the results for the “% inhibition vs. DMSO” value in data set [2] (compound 1 μg/ml), in data set [2] (compound 10 μg/ml) and in data set [2] (compound 100 μg/ml) were 33.1%, 33.8% and 70.4%, respectively. Further, the TNF-α is 5463 pg/mL in data set [2] (setting [5]), 5302 pg/mL in data set [2] (compound 10 μg/ml) and 58 pg/mL in data set [2] (setting [6]).
As for `O=C1C[C@H](Cc2ccccc2)NC(=O)[C@H]2CCCN2C(=O)[C@H]2CCCN2C(=O)[C@@H](Cc2ccccc2)N1` [I-E] (cyclo([dF][dP][dP][β3hF])), the “PHA-induced PBMC proliferation, P vs DMSO at appropriate dilution” value in data set [1] (1 μg/ml, FIGS. 9A-9B) is on record as 1.0000; in data set [1] (10 μg/ml, FIGS. 9A-9F), 1.0000; in data set [1] (100 μg/ml, FIGS. 9A-9F), 0.9982. Besides, the entries for the “% inhibition vs. DMSO” value in data set [2] (compound 1 μg/ml), in data set [2] (compound 10 μg/ml) and in data set [2] (compound 100 μg/ml) were 19.0%, 20.7% and 10.2%, respectively. The results for the TNF-α in data set [2] (setting [5]), in data set [2] (compound 10 μg/ml) and in data set [2] (setting [6]) were 6614 pg/mL, 6346 pg/mL and 176 pg/mL, respectively.
Regarding `CC(C)(C)Oc1ccc(C[C@@H]2NC(=O)C[C@H](Cc3ccccc3)NC(=O)[C@@H]3CCCN3C(=O)[C@@H]3CCCN3C2=O)cc1` [I-N] (cyclo(PP[β3hF]Y(tBu))), the “PBMC survival, P vs DMSO at appropriate dilution” value (shortened to “PBMC survival, P vs DMSO”) in data set [3] (1 μg/ml, FIGS. 8A-8B) came out at 1.0000; in data set [3] (setting [7]), 1.0000; in data set [3] (setting [8]), 1.0000.
As for `CC(C)(C)OC[C@@H]1NC(=O)[C@H](Cc2ccccc2)NC(=O)C[C@H](Cc2ccccc2)NC(=O)[C@@H]2CCCN2C1=O` [I-AL] (cyclo(FS(tBu)P[β3hF])), the “foot pad edema (increase of foot pad thickness), P vs Control” value in data set [4] is 0.0001. The “PHA-induced PBMC proliferation, P vs DMSO at appropriate dilution” value in data set [1] (10 μg/ml, FIGS. 9A-9F) is recorded as 0.2258; in data set [1] (100 μg/ml, FIGS. 9A-9F) it was 0.9976. In addition, the “PBMC survival, P vs DMSO” value is given as 1.0000 in data set [3] (setting [7]) and 0.0466 in data set [3] (setting [8]).
For `O=C1C[C@H](Cc2ccccc2)NC(=O)[C@@H]2CCCN2C(=O)[C@@H]2CCCN2C(=O)[C@H](Cc2c[nH]c3ccccc23)N1` [I-L] (cyclo(PP[β3hF]W)), the “PBMC survival, P vs DMSO” value in data set [3] (1 μg/ml, FIGS. 8A-8B) was 0.9999; in data set [3] (setting [7]), 1.0000; in data set [3] (setting [8]) it was 0.9957.
For `O=C1C[C@@H](Cc2ccccc2)NC(=O)[C@H]2CCCN2C(=O)[C@H]2CCCN2C(=O)[C@@H](Cc2ccccc2)N1` [I-J] (cyclo([d(β3hF)][dF][dP][dP])), the “PHA-induced PBMC proliferation, P vs DMSO at appropriate dilution” value in data set [1] (1 μg/ml, FIGS. 9A-9B) worked out at 1.0000; in data set [1] (10 μg/ml, FIGS. 9A-9F) it was 1.0000; in data set [1] (100 μg/ml, FIGS. 9A-9F), 0.1257. Moreover, the entries for the “% inhibition vs. DMSO” value in data set [2] (compound 1 μg/ml), in data set [2] (compound 10 μg/ml) and in data set [2] (compound 100 μg/ml) were 1.6%, 4.4% and 0.0%, respectively. For the same molecule, the TNF-α in data set [2] (setting [5]) was determined as 8033 pg/mL; in data set [2] (compound 10 μg/ml) it was 7658 pg/mL; in data set [2] (setting [6]), 203 pg/mL.
In the case of `O=C1C[C@H](Cc2ccccc2)NC(=O)[C@@H]2CCCN2C(=O)[C@@H]2CCCN2C(=O)[C@@H](Cc2ccccc2)N1` [I-D] (cyclo(PP[β3hF][dF])), the “PHA-induced PBMC proliferation, P vs DMSO at appropriate dilution” value in data set [1] (1 μg/ml, FIGS. 9A-9B) came out at 1.0000; in data set [1] (10 μg/ml, FIGS. 9A-9F) it was 0.9999; in data set [1] (100 μg/ml, FIGS. 9A-9F), 1.0000. Besides, the “% inhibition vs. DMSO” value in data set [2] (compound 1 μg/ml) came to 14.1%; in data set [2] (compound 10 μg/ml) it was 28.1%; in data set [2] (compound 100 μg/ml), 28.1%. Besides, the TNF-α in data set [2] (setting [5]) is 7016 pg/mL; in data set [2] (compound 10 μg/ml), 5757 pg/mL; in data set [2] (setting [6]) it was 141 pg/mL.
As for `O=C1C[C@H](Cc2ccccc2)NC(=O)[C@H]2CCCN2C(=O)[C@@H]2CCCN2C(=O)[C@H](Cc2ccccc2)N1` [I-H] (cyclo(FP[dP][β3hF])), the “PHA-induced PBMC proliferation, P vs DMSO at appropriate dilution” value is listed as 0.5198 in data set [1] (1 μg/ml, FIGS. 9A-9B); 1.0000 in data set [1] (10 μg/ml, FIGS. 9A-9F); 0.2037 in data set [1] (100 μg/ml, FIGS. 9A-9F). Besides, the “% inhibition vs. DMSO” value amounted to 12.8% in data set [2] (compound 1 μg/ml), 10.0% in data set [2] (compound 10 μg/ml) and 43.9% in data set [2] (compound 100 μg/ml). Also, the TNF-α in data set [2] (setting [5]) turned out to be 7123 pg/mL; in data set [2] (compound 10 μg/ml), 7203 pg/mL; in data set [2] (setting [6]), 110 pg/mL.
Consider `CC(C)(C)Oc1ccc(C[C@H]2CC(=O)N[C@@H](Cc3ccccc3)C(=O)N3CCC[C@H]3C(=O)N3CCC[C@H]3C(=O)N2)cc1` [I-AF], for which the “foot pad edema (increase of foot pad thickness), P vs Control” value in data set [4] is listed as 1.0000. Also, the “PHA-induced PBMC proliferation, P vs DMSO at appropriate dilution” value in data set [1] (10 μg/ml, FIGS. 9A-9F) was found to be 0.9850; in data set [1] (100 μg/ml, FIGS. 9A-9F) it was 0.0010. For the same molecule, the “PBMC survival, P vs DMSO” value is recorded as 1.0000 in data set [3] (setting [7]) and 0.0090 in data set [3] (setting [8]).
As for `O=C1C[C@H](Cc2ccccc2)NC(=O)[C@@H]2CCCN2C(=O)[C@H]2CCCN2C(=O)[C@H](Cc2ccccc2)N1` [I-F] (cyclo([dP]P[β3hF]F)), the “PHA-induced PBMC proliferation, P vs DMSO at appropriate dilution” value came to 1.0000 in data set [1] (1 μg/ml, FIGS. 9A-9B); 0.9930 in data set [1] (10 μg/ml, FIGS. 9A-9F); 0.0001 in data set [1] (100 μg/ml, FIGS. 9A-9F). In addition, the “% inhibition vs. DMSO” value in data set [2] (compound 1 μg/ml) is 25.9%; in data set [2] (compound 10 μg/ml), 34.8%; in data set [2] (compound 100 μg/ml), 61.2%. The figures for the TNF-α in data set [2] (setting [5]), in data set [2] (compound 10 μg/ml) and in data set [2] (setting [6]) were 6052 pg/mL, 5222 pg/mL and 76 pg/mL, respectively.
